Key:
Type in all cases: cell-based
[1] = target: Protein cereblon/Bromodomain-containing protein 4 (Homo sapiens, UniProt O60885+Q96SW2); assay: Protac activity at CRBN/BRD4 in human 22Rv1 cells assessed as c-MYC degradation after 18 hrs by ELISA
[2] = target: Protein cereblon/Steroid hormone receptor ERR1 (Homo sapiens) (UniProt P11474+Q96SW2); assay: Protac activity at CRBN/ERRalpha in human NAMALWA cells assessed as ERRalpha degradation at 0.1 to 1 uM after 16 hrs by Western blot analysis relative to control
[3] = target: Protein cereblon/Androgen receptor (Homo sapiens) (UniProt P10275+Q96SW2); assay: Protac activity at CRBN/AR in human VCaP cells assessed as AR degradation at 0.0001 to 1 uM after 16 hrs by sandwich ELISA relative to control
[4] = target: Protein cereblon/Serine/threonine-protein kinase TBK1 (Homo sapiens) (UniProt Q9UHD2+Q96SW2); assay: Protac activity at CRBN/TBK1 in human Panc02.13 cells assessed as TBK1 degradation at 0.1 to 1 uM after 16 hrs by Western blot analysis relative to control
Chain of Protein cereblon/Serine/threonine-protein kinase TBK1 (Homo sapiens) (Q96SW2 whole entry, looked up): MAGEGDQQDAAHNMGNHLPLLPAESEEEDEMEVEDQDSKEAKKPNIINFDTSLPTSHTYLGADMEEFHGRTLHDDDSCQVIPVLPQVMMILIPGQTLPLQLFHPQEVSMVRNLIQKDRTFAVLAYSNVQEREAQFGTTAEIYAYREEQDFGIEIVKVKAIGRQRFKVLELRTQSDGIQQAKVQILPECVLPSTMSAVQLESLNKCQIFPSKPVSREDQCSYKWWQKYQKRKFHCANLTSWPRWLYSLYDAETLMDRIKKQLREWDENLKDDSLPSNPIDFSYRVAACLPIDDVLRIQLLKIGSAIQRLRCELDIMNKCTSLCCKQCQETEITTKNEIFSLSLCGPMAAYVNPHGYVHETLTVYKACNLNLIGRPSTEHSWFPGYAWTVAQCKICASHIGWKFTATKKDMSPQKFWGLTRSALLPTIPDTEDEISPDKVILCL
Chain of Protein cereblon/Serine/threonine-protein kinase TBK1 (Homo sapiens) (Q9UHD2 whole entry, looked up): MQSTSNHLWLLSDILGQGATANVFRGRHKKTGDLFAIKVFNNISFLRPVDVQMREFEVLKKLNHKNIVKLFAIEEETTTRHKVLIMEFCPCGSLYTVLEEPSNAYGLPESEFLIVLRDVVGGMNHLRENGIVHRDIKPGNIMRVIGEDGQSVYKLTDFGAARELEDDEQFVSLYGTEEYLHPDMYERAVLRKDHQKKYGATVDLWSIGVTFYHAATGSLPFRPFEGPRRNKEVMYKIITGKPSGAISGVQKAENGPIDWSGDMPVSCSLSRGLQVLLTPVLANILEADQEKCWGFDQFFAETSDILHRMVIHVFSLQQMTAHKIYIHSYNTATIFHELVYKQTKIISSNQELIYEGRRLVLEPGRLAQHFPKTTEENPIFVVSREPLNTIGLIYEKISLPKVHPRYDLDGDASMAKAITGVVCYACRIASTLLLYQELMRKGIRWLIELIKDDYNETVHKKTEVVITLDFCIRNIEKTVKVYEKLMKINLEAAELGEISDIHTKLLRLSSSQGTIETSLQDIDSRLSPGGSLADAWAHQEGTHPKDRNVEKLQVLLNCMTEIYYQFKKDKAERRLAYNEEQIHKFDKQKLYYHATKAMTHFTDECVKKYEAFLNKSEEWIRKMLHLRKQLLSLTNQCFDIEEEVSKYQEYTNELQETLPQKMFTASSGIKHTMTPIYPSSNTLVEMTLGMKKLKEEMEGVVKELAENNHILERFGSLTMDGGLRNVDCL

Chain of Protein cereblon/Androgen receptor (Homo sapiens) (P10275 whole entry, looked up): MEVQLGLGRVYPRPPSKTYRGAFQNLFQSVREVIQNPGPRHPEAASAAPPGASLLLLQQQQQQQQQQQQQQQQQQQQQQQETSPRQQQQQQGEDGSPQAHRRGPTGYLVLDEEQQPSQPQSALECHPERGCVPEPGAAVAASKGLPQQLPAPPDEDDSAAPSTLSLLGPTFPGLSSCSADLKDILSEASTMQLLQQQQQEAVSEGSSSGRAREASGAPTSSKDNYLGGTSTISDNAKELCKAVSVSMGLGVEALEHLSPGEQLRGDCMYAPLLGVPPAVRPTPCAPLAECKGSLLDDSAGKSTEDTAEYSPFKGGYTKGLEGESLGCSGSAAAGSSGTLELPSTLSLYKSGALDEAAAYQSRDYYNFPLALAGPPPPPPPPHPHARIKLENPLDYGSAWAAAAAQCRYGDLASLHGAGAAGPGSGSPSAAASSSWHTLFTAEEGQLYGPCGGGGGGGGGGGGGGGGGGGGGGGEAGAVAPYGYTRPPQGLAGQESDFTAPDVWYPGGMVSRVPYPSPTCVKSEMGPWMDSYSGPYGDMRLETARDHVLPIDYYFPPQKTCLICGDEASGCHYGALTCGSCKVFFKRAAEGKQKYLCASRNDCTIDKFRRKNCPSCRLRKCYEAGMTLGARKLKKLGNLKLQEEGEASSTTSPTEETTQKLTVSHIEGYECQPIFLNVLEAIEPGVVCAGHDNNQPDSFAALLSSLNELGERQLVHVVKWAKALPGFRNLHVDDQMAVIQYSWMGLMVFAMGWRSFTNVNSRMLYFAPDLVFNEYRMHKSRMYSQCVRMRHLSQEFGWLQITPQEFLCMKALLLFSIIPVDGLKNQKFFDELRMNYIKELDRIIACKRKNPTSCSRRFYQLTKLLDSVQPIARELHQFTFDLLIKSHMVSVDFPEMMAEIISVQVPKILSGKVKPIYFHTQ
Chain of Protein cereblon/Androgen receptor (Homo sapiens) (Q96SW2 whole entry, looked up): as the sequence (Q96SW2 whole entry, looked up) above
Chain of Protein cereblon/Bromodomain-containing protein 4 (Q96SW2 whole entry, looked up, other chains not shown): as the sequence (Q96SW2 whole entry, looked up) above
Chain of Protein cereblon/Steroid hormone receptor ERR1 (Homo sapiens) (P11474 whole entry, looked up): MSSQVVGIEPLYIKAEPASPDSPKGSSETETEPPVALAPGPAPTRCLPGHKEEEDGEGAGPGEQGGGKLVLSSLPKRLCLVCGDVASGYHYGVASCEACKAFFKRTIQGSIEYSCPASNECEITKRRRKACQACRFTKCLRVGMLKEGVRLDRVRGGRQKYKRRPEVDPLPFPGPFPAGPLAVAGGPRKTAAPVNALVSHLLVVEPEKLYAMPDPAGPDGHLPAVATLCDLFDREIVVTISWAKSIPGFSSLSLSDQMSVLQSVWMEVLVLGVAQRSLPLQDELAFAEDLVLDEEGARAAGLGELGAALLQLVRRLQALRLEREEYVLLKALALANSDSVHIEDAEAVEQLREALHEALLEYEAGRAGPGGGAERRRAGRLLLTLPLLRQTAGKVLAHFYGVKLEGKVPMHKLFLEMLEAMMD
Chain of Protein cereblon/Steroid hormone receptor ERR1 (Homo sapiens) (Q96SW2 whole entry, looked up): as the sequence (Q96SW2 whole entry, looked up) above

Cc1sc2c(c1C)C(c1ccc(Cl)cc1)=NC(CC(=O)NCCOCCNc1cccc3c1C(=O)N(C1CCC(=O)NC1=O)C3=O)c1nnc(C)n1-2 (configuration not stated)
IC50 [1]: < 50 nM

COc1cc(/C=C2\SC(=O)N(CCCOCCNc3cccc4c3C(=O)N(C3CCC(=O)NC3=O)C4=O)C2=O)ccc1Oc1ccc(C#N)cc1C(F)(F)F (configuration not stated)
Activity [2]: > 50%

CC1(C)C(=O)N(c2ccc(C#N)c(C(F)(F)F)c2)C(=S)N1c1ccc(-c2ccc(OCCCCCNc3cccc4c3C(=O)N(C3CCC(=O)NC3=O)C4=O)cc2)cc1 (configuration not stated)
Activity [3]: > 50%

CC1(C)[C@H](NC(=O)c2ccc(OCCCCCOCCCNc3cccc4c3C(=O)N(C3CCC(=O)NC3=O)C4=O)cc2)C(C)(C)[C@H]1Oc1ccc(C#N)c(Cl)c1 (some centres not stated)
Activity [3]: > 50%

CN(CCCNc1nc(Nc2ccc(OCCOCCOCCOCCOCCOCCNc3cccc4c3C(=O)N(C3CCC(=O)NC3=O)C4=O)cc2)ncc1Br)C(=O)C1CCC1 (configuration not stated)
Activity [4]: > 50%

CN(CCCNc1nc(Nc2ccc(OCCOCCOCCOCCOCCNc3cccc4c3C(=O)N(C3CCC(=O)NC3=O)C4=O)cc2)ncc1Br)C(=O)C1CCC1 (configuration not stated)
Activity [4]: > 50%

Cc1sc2c(c1C)C(c1ccc(Cl)cc1)=NC(CC(=O)N[C@@H](C)c1ccc(OCCOCCNc3cccc4c3C(=O)N(C3CCC(=O)NC3=O)C4=O)cc1)c1nnc(C)n1-2 (some centres not stated)
IC50 [1]: < 50 nM

Source: ChEMBL document CHEMBL4364351, “PROTAC Degradation of Bromodomain for the Treatment of Hyperplasia and Cancer” (ACS Med Chem Lett, 2019)
